According to the OligoGym collection:
Oligonucleotides are written 5' to 3', each unit as a sugar letter and its base; * is a phosphorothioate linkage, no mark a phosphodiester; rarer units and linkages stand in square brackets, end groups in braces. Plain capitals give the bases only. d = 2'-deoxy (DNA); r = 2'-OH (RNA)
Further: test concentration or dose not given here.

The substances below were run against UBE2V1 (assay: reporter assay of Huesken 2005). Conditions: siRNA.
For “sense rArGrGrArGrArUrGrGrCrArCrArGrUrUrArGrCdTdT / antisense rGrCrUrArArCrUrGrUrGrCrCrArUrCrUrCrCrUdAdC”, the normalised inhibition (eCFP-eYFP dual reporter) was 60.9%.
In the case of “sense rArGrGrArGrUrArGrGrArGrArUrGrGrCrArCrAdTdT / antisense rUrGrUrGrCrCrArUrCrUrCrCrUrArCrUrCrCrUdTdT”, the normalised inhibition (eCFP-eYFP dual reporter) is reported as 92.3%.
With “sense rArGrUrArArArArGrUrCrCrCrUrCrGrCrArArUdTdT / antisense rArUrUrGrCrGrArGrGrGrArCrUrUrUrUrArCrUdCdC” the normalised inhibition (eCFP-eYFP dual reporter) was 91%.
“sense rArGrUrCrCrCrUrCrGrCrArArUrUrUrCrCrGrAdTdT / antisense rUrCrGrGrArArArUrUrGrCrGrArGrGrGrArCrUdTdT” showed a normalised inhibition (eCFP-eYFP dual reporter) of 96%.
“sense rArGrUrUrCrUrArArUrGrGrArGrUrGrGrUrGrGdTdT / antisense rCrCrArCrCrArCrUrCrCrArUrUrArGrArArCrUdAdT” was tested, and the normalised inhibition (eCFP-eYFP dual reporter) was 56.8%.
“sense rArUrUrUrCrArCrUrGrCrArArArGrGrArGrUrAdTdT / antisense rUrArCrUrCrCrUrUrUrGrCrArGrUrGrArArArUdTdT” showed a normalised inhibition (eCFP-eYFP dual reporter) of 95%.
Work on “sense rCrArArArGrUrUrGrUrCrCrUrGrCrArArGrArGdTdT / antisense rCrUrCrUrUrGrCrArGrGrArCrArArCrUrUrUrGdAdT” yielded a normalised inhibition (eCFP-eYFP dual reporter) of 71.5%.
“sense rCrArArGrArGrCrUrUrCrGrGrCrGrCrCrUrArAdTdT / antisense rUrUrArGrGrCrGrCrCrGrArArGrCrUrCrUrUrGdCdA” showed a normalised inhibition (eCFP-eYFP dual reporter) of 84.1%.
“sense rCrArArUrUrUrCrCrGrArCrUrGrUrUrGrGrArAdTdT / antisense rUrUrCrCrArArCrArGrUrCrGrGrArArArUrUrGdCdG” showed a normalised inhibition (eCFP-eYFP dual reporter) of 95.3%.
With “sense rCrArGrArArUrUrCrArUrArUrArGrCrArUrCrAdTdT / antisense rUrGrArUrGrCrUrArUrArUrGrArArUrUrCrUrGdCdC” the normalised inhibition (eCFP-eYFP dual reporter) was 90%.
In the case of “sense rCrArGrUrGrCrUrArGrCrArArArArUrGrGrCrAdTdT / antisense rUrGrCrCrArUrUrUrUrGrCrUrArGrCrArCrUrGdAdT”, the normalised inhibition (eCFP-eYFP dual reporter) is reported as 87.5%.
Work on “sense rCrArUrArUrArGrCrArUrCrArArArGrUrUrGrUdTdT / antisense rArCrArArCrUrUrUrGrArUrGrCrUrArUrArUrGdAdA” yielded a normalised inhibition (eCFP-eYFP dual reporter) of 77.7%.
With “sense rCrCrCrUrCrGrCrArArUrUrUrCrCrGrArCrUrGdTdT / antisense rCrArGrUrCrGrGrArArArUrUrGrCrGrArGrGrGdAdC” the normalised inhibition (eCFP-eYFP dual reporter) was 84.5%.
“sense rCrCrUrArArUrGrArUrGrUrCrUrArArArGrArAdTdT / antisense rUrUrCrUrUrUrArGrArCrArUrCrArUrUrArGrGdCdG” was tested, and the normalised inhibition (eCFP-eYFP dual reporter) was 95.1%.
“sense rCrCrUrCrArGrCrCrGrCrCrCrGrArArGrGrArCdTdT / antisense rGrUrCrCrUrUrCrGrGrGrCrGrGrCrUrGrArGrGdGdA” was tested, and the normalised inhibition (eCFP-eYFP dual reporter) was 55.2%.
“sense rCrCrUrCrCrArArGrArArCrArArUrUrUrArUrGdTdT / antisense rCrArUrArArArUrUrGrUrUrCrUrUrGrGrArGrGdCdC” was tested, and the normalised inhibition (eCFP-eYFP dual reporter) was 63.1%.
“sense rCrCrUrUrUrGrUrArArGrArUrUrUrGrUrArArCdTdT / antisense rGrUrUrArCrArArArUrCrUrUrArCrArArArGrGdGdG” gave a normalised inhibition (eCFP-eYFP dual reporter) of 63.8%.
Substance “sense rCrGrArArUrArUrArCrArGrCrCrUrUrArArArAdTdT / antisense rUrUrUrUrArArGrGrCrUrGrUrArUrArUrUrCrGdGdT” has a normalised inhibition (eCFP-eYFP dual reporter) of 89.4%.
Work on “sense rCrUrArGrArArArArUrUrUrCrArCrUrGrCrArAdTdT / antisense rUrUrGrCrArGrUrGrArArArUrUrUrUrCrUrArGdGdT” yielded a normalised inhibition (eCFP-eYFP dual reporter) of 96%.
With “sense rCrUrArGrArArGrArUrGrArCrGrArArGrArCrAdTdT / antisense rUrGrUrCrUrUrCrGrUrCrArUrCrUrUrCrUrArGdAdC” the normalised inhibition (eCFP-eYFP dual reporter) was 88.8%.
For “sense rCrUrUrGrArArCrCrUrArGrArArArArUrUrUrCdTdT / antisense rGrArArArUrUrUrUrCrUrArGrGrUrUrCrArArGdTdC”, the normalised inhibition (eCFP-eYFP dual reporter) was 53.5%.
“sense rGrArArArArUrUrUrCrArCrUrGrCrArArArGrGdTdT / antisense rCrCrUrUrUrGrCrArGrUrGrArArArUrUrUrUrCdTdA” showed a normalised inhibition (eCFP-eYFP dual reporter) of 83.7%.
Substance “sense rGrArArGrArArCrUrCrGrArArGrArArGrGrCrCdTdT / antisense rGrGrCrCrUrUrCrUrUrCrGrArGrUrUrCrUrUrCdCdA” has a normalised inhibition (eCFP-eYFP dual reporter) of 53.8%.
With “sense rGrArArGrArUrGrArCrGrArArGrArCrArUrGrAdTdT / antisense rUrCrArUrGrUrCrUrUrCrGrUrCrArUrCrUrUrCdTdA” the normalised inhibition (eCFP-eYFP dual reporter) was 95%.
In the case of “sense rGrArGrCrCrArUrArUrCrArGrUrGrCrUrArGrCdTdT / antisense rGrCrUrArGrCrArCrUrGrArUrArUrGrGrCrUrCdTdT”, the normalised inhibition (eCFP-eYFP dual reporter) is reported as 90.9%.
For “sense rGrCrArArGrArGrCrUrUrCrGrGrCrGrCrCrUrAdTdT / antisense rUrArGrGrCrGrCrCrGrArArGrCrUrCrUrUrGrCdAdG”, the normalised inhibition (eCFP-eYFP dual reporter) was 82.6%.
Substance “sense rGrCrArGrArArUrUrCrArUrArUrArGrCrArUrCdTdT / antisense rGrArUrGrCrUrArUrArUrGrArArUrUrCrUrGrCdCdA” has a normalised inhibition (eCFP-eYFP dual reporter) of 82%.
“sense rGrCrCrArUrArUrCrArGrUrGrCrUrArGrCrArAdTdT / antisense rUrUrGrCrUrArGrCrArCrUrGrArUrArUrGrGrCdTdC” showed a normalised inhibition (eCFP-eYFP dual reporter) of 92.1%.
In the case of “sense rGrCrCrUrArArUrGrArUrGrUrCrUrArArArGrAdTdT / antisense rUrCrUrUrUrArGrArCrArUrCrArUrUrArGrGrCdGdC”, the normalised inhibition (eCFP-eYFP dual reporter) is reported as 94.5%.
“sense rGrCrCrUrCrCrArArGrArArCrArArUrUrUrArUdTdT / antisense rArUrArArArUrUrGrUrUrCrUrUrGrGrArGrGrCdCdC” showed a normalised inhibition (eCFP-eYFP dual reporter) of 76.5%.
In the case of “sense rGrGrArGrUrArArArArGrUrCrCrCrUrCrGrCrAdTdT / antisense rUrGrCrGrArGrGrGrArCrUrUrUrUrArCrUrCrCdTdT”, the normalised inhibition (eCFP-eYFP dual reporter) is reported as 88.7%.
Work on “sense rGrGrArUrGrArUrArArUrUrGrGrGrCrCrUrCrCdTdT / antisense rGrGrArGrGrCrCrCrArArUrUrArUrCrArUrCrCdCdT” yielded a normalised inhibition (eCFP-eYFP dual reporter) of 70.5%.
“sense rGrGrGrUrCrUrArGrArArGrArUrGrArCrGrArAdTdT / antisense rUrUrCrGrUrCrArUrCrUrUrCrUrArGrArCrCrCdCdA” gave a normalised inhibition (eCFP-eYFP dual reporter) of 96.3%.
With “sense rGrGrUrGrGrArCrCrCrArArGrArGrCrCrArUrAdTdT / antisense rUrArUrGrGrCrUrCrUrUrGrGrGrUrCrCrArCrCdAdC” the normalised inhibition (eCFP-eYFP dual reporter) was 84.1%.
In the case of “sense rGrUrArGrGrArGrArUrGrGrCrArCrArGrUrUrAdTdT / antisense rUrArArCrUrGrUrGrCrCrArUrCrUrCrCrUrArCdTdC”, the normalised inhibition (eCFP-eYFP dual reporter) is reported as 88.8%.
In the case of “sense rGrUrCrUrArArArGrArArArArUrArUrGrArArAdTdT / antisense rUrUrUrCrArUrArUrUrUrUrCrUrUrUrArGrArCdAdT”, the normalised inhibition (eCFP-eYFP dual reporter) is reported as 75.3%.
Work on “sense rGrUrCrUrArGrArArGrArUrGrArCrGrArArGrAdTdT / antisense rUrCrUrUrCrGrUrCrArUrCrUrUrCrUrArGrArCdCdC” yielded a normalised inhibition (eCFP-eYFP dual reporter) of 92%.
